Source: PMC7329795 (Pharmacological Reports, 2020)
Read-outs that look alike come from different tables or passages of the source.

Columns and labels:
CYP1A2 [1] = target: T1, CYP1A2 (Homo sapiens, UniProt P05177)
T1 sequence (P05177 1-516): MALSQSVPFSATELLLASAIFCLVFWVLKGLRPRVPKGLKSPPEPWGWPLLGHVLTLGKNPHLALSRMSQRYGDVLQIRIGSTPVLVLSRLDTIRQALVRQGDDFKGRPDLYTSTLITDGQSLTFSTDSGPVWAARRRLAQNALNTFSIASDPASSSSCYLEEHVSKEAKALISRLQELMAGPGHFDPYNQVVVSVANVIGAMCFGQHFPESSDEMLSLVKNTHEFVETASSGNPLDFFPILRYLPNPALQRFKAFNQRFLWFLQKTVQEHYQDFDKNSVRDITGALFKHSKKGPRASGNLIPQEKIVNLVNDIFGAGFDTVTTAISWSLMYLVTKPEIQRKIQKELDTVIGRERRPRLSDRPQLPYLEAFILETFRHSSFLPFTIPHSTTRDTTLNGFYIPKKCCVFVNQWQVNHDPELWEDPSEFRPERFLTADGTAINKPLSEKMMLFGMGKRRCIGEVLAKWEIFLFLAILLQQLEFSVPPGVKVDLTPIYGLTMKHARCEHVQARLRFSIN

CYP2D6 [2] = target: T2, CYP2D6 (Homo sapiens, UniProt P10635); details: liver microsomes; Lineweaver–Burk's plots
CYP2C9 [3] = target: T3, CYP2C9 (Homo sapiens, UniProt P11712); experiment: CYP2C9 activity, diclofenac 4′-hydroxylation, pooled human liver microsomes
Description: (§1) The final incubation volume was 0.5 ml. After a 30-min incubation, the reaction was stopped by adding 100 µl of acetonitrile. […] The final concentration of CYP2C9 was 50 pmol/ml. Concentrations of diclofenac and its metabolite 4′-hydroxydiclofenac, formed in liver microsomes or Supersomes 2C9, were assessed by the HPLC method with UV detection, as described previously.

CYP3A4 [4] = target: T4, CYP3A4 (Homo sapiens, UniProt P08684)
CYP2D6 [5] = target: T2, CYP2D6; set-up: method as in PMID 26033329; details: psychiatric patients; cited from earlier work
[6] = cited from earlier work
[7] = target: T5, human cDNA-expressed CYP2D6 (Homo sapiens, UniProt P10635); details: recombinant enzyme
CYP1A2 [8] = target: T1, CYP1A2; details: liver microsomes; Lineweaver–Burk's plots
[9] = cited from earlier work; remark: listed apart in the source
CYP2C19 [10] = target: T6, CYP2C19 (Homo sapiens, UniProt P33261)
[11] = cited from earlier work; remark: listed apart in the source
[12] = target: human cDNA-expressed CYP3A4 (Homo sapiens, UniProt P08684)
CYP2C19 [13] = target: T6, CYP2C19; details: liver microsomes; asenapine 0.01-10 μM
CYP2D6 [14] = target: T2, CYP2D6
[15] = target: T5, human cDNA-expressed CYP2D6
[16] = target: human cDNA-expressed CYP2C9 (Homo sapiens, UniProt P11712); experiment: CYP2C9 activity, diclofenac 4′-hydroxylation, Supersomes CYP2C9
Description: as §1

CYP2C9 [17] = target: T3, CYP2C9; experiment: as above; details: human, pH 7.4, probe diclofenac (4′-hydroxylation)
Description: as §1

[18] = clinical studies; cited from earlier work
CYP3A4 [19] = target: T4, CYP3A4; experiment: in vitro; details: pH 7.4
CYP3A4 [20] = target: T4, CYP3A4; experiment: in vitro; details: pH 7.4; remark: listed apart in the source
[21] = substrate: Cn1c(=O)c2c(ncn2C)n(C)c1=O
[22] = substrate: CN1CCN(CCCN2c3ccccc3Sc3ccccc32)CC1

T5 sequence (P10635 whole entry): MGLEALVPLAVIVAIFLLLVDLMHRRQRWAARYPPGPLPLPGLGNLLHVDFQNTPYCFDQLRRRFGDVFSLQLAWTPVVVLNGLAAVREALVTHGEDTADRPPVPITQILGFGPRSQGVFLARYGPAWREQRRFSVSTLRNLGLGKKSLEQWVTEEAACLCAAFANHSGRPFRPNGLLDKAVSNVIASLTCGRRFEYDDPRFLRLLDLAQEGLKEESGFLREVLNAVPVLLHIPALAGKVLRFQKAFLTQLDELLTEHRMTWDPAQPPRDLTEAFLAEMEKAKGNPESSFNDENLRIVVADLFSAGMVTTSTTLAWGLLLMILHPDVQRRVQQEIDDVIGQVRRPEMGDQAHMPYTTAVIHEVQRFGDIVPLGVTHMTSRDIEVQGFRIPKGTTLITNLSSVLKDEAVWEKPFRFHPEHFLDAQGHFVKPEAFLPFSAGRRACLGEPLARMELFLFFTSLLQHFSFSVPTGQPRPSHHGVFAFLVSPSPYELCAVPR
T2 sequence (P10635 whole entry): as above
T4 sequence (P08684 whole entry): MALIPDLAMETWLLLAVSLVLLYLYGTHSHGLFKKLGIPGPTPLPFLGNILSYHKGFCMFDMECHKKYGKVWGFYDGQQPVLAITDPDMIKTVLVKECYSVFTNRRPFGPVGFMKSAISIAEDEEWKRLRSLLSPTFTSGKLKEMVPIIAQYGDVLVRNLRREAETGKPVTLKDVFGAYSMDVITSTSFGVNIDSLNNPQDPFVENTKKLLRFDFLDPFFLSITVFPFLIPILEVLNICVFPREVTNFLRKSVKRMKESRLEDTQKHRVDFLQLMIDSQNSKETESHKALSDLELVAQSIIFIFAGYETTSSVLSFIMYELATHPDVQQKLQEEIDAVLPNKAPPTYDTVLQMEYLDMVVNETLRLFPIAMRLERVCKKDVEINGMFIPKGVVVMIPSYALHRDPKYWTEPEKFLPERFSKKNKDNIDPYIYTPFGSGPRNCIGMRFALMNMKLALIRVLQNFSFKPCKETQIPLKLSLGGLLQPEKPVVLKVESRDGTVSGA
T3 sequence (P11712 whole entry): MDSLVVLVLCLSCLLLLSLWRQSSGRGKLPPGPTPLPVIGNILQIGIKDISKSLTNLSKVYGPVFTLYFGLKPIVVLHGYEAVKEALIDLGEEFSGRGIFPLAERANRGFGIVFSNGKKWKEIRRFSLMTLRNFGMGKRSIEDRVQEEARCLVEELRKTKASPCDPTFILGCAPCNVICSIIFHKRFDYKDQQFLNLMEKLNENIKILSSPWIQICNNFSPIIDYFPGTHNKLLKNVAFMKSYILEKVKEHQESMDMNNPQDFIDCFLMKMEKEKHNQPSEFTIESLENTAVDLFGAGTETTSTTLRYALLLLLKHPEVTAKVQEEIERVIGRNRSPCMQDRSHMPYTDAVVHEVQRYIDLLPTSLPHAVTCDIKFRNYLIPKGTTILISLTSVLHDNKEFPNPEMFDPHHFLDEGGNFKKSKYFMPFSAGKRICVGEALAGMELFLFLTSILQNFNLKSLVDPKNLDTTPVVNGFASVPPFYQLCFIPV
Chain of human cDNA-expressed CYP3A4 (P08684 whole entry): as the sequence (P08684 whole entry) above
Chain of human cDNA-expressed CYP2C9 (P11712 whole entry): as the sequence (P11712 whole entry) above

For `CN1CC2c3ccccc3Oc3ccc(Cl)cc3C2C1` (stereo not drawn) [Asenapine], the IC50 (CYP1A2 [1]) was 0.697 µM, the Ki (CYP1A2 [1]) was 3.2 µM and the “type of inhibition (CYP2D6)” value (CYP2D6 [2]) was “competitive”. The IC50 (CYP2C9 [3]) was greater than 1000 µM, the “effect on the activity of CYP2C9” value (CYP2C9 [3]; liver microsomes, asenapine 0.01-10 μM) was “did not affect” and the “type of inhibition (CYP3A4)” value (CYP3A4 [4]; liver microsomes, Lineweaver–Burk's plots) was “non-competitive”. The “effect on the concentration of paroxetine (a CYP2D6 substrate) in the blood plasma” value (CYP2D6 [5]) was “doubled”, the “estimated terminal half-life (t1/2)” value ([6]; adults) was “approximately 24 h” and the therapeutic plasma concentrations [6] was “up to 0.1 μM”. The “type of inhibition (CYP2D6)” value [7] was “competitive”, the “type of inhibition (CYP1A2)” value (CYP1A2 [8]) was “mixed” and the pKa ([9]; amine) was 9.64. The “log P” value ([9]; cationic form) was 1.4, the “log P” value ([9]; neutral form) was 4.9 and the pKa ([9]; protonated base) was 8.6. The IC50 (CYP2C19 [10]) was greater than 1000 µM, the “bound to plasma proteins” value [11] was 95% and the “type of inhibition (CYP3A4)” value ([12]; recombinant enzyme) was “non-competitive”. The “effect on the activity of CYP2C19” value (CYP2C19 [13]) was “did not affect”, the IC50 (CYP2D6 [14]) was 0.391 µM and the Ki (CYP2D6 [14]) was 1.75 µM. It also gave an IC50 [15] of 0.398 µM, a Ki [15] of 1.89 µM and an IC50 [16] greater than 1000 µM.

For `O=C(O)Cc1ccccc1Nc1c(Cl)cccc1Cl` [diclofenac], the Km at 30 min (CYP2C9 [3]; human, pH 7.4) was 137 µM, the “Vmax, diclofenac 4′-hydroxylation” value ([16]; Supersomes CYP2C9) was 213.6 pmol/pmol CYP/min and the Km at 30 min (CYP2C9 [17]) was 132 µM.

For `O=C(CCCN1CCC(O)(c2ccc(Cl)cc2)CC1)c1ccc(F)cc1` [haloperidol], the “concentration in the liver relative to that in plasma” value [18] is listed as 900 fold.

With `C[C@]12CC[C@H]3[C@@H](CCC4=CC(=O)CC[C@@]43C)[C@@H]1CC[C@@H]2O` [testosterone] the “Vmax, testosterone 6β-hydroxylation” value (CYP3A4 [4]; human liver microsomes) was 72.9 pmol/mg protein/min, the “Vmax, testosterone 6β-hydroxylation” value ([12]; Supersomes CYP3A4) was 42.9 pmol/pmol CYP/min and the Km at 20 min (CYP3A4 [19]) was 283 µM. It also gave a Km at 30 min (CYP3A4 [20]) of 428 µM.

B1: CYP1A2 (Homo sapiens) (protein)
chain: T1 sequence (P05177 1-516)
B1 gave a Km [21] of 709 µM and a Vmax [21] of 9.67 pmol/mg protein/min.

B2: CYP2C19 (Homo sapiens) (protein)
chain: MDPFVVLVLCLSCLLLLSIWRQSSGRGKLPPGPTPLPVIGNILQIDIKDVSKSLTNLSKIYGPVFTLYFGLERMVVLHGYEVVKEALIDLGEEFSGRGHFPLAERANRGFGIVFSNGKRWKEIRRFSLMTLRNFGMGKRSIEDRVQEEARCLVEELRKTKASPCDPTFILGCAPCNVICSIIFQKRFDYKDQQFLNLMEKLNENIRIVSTPWIQICNNFPTIIDYFPGTHNKLLKNLAFMESDILEKVKEHQESMDINNPRDFIDCFLIKMEKEKQNQQSEFTIENLVITAADLLGAGTETTSTTLRYALLLLLKHPEVTAKVQEEIERVIGRNRSPCMQDRGHMPYTDAVVHEVQRYIDLIPTSLPHAVTCDVKFRNYLIPKGTTILTSLTSVLHDNKEFPNPEMFDPRHFLDEGGNFKKSNYFMPFSAGKRICVGEGLARMELFLFLTFILQNFNLKSLIDPKDLDTTPVVNGFASVPPFYQLCFIPV
B2 gave a Km [22] of 199.9 µM and a Vmax [22] of 1.58 nmol/mg protein/min.
